Test system: HIV p24
Assay: HIV p24 digital immunoassay in culture supernatants
Type: cell-based, HIV-1
Settings: Human immunodeficiency virus 1, CD4+ T, read-out: p24 EC50
Procedure: The fully automated Quanterix HD-X analyzer for single molecule detection was utilized to measure HIV p24 levels in culture supernatants (stored frozen at –80°C until use). Upon thaw, Triton X-100 was added to a final concentration of 1% to culture supernatants, incubated for 1 hour at room temperature before analysis on the same day. An in-house standard using purified HIV p24 protein was utilized in place of the standard provided in the p24 Simoa kit (Quanterix, catalog 102215). Briefly, p24 protein purchased from Advanced Biotechnologies, catalog 14-101-050, was reconstituted to 200 ng/mL in complete RPMI and stored at –80 in smaller aliquots. Standard curve was made in a […] dilution series from 40000 to 1.8 fg/ml in complete RPMI with 1% Triton X-100. All other assay reagents and assay reaction conditions followed the manufacturer’s protocol. p24 concentration in experimental samples was calculated based on a p24 calibration curve with 4-parameter curve fitting.

Cc1ccc(C#Cc2ccc(C(=O)OCC3(CO)Cc4c(-c5ccccc5)ccnc4O3)cc2)cc1 (stereo not shown) [C-233]
EC50: 428 nM

— article PMC11801715, “Activating PKC-ε induces HIV expression with improved tolerability” (PLOS Pathogens, 2025)
